According to patent US10051861B2, “N-arylamidine-substituted trifluoroethyl sulfide derivatives as acaricides and insecticides” (BAYER CROPSCIENCE AG, priority 2011, dated 2018):

Test system: greenhouse red spider mite (Tetranychus urticae)
Test: Tetranychus urticae spray test, OP-resistant (TETRUR), bean leaf disks
Type: in vivo
Conditions: Tetranychus urticae, foliar, 144 h, application rate 500 g/ha, after 6 days; read-out: efficacy (spider mites killed)
Experimental: After 6 days, the effect in % is determined.

In order of rising pest or weed control at 500 g/ha:
1. Cc1cc(F)c(/N=C/N(C)C)cc1[S+]([O-])CC(F)(F)F (stereo not drawn) [Ib-128]  90%
2. Cc1cc(C)c([S+]([O-])CC(F)(F)F)cc1/N=C(/c1ccc(Cl)nc1)N(C)C (stereo not drawn) [Ib-133]  90%
3. Cc1cc(F)c(/N=C2\SCC(=O)N2C)cc1[S+]([O-])CC(F)(F)F (stereo not drawn) [Ib-134]  90%
4. Cc1cc(C)c([S+]([O-])CC(F)(F)F)cc1/N=C(\NC1CC1)c1ccc(Cl)nc1 (stereo not drawn) [Ib-136]  90%
5. Cc1cc(C)c([S+]([O-])CC(F)(F)F)cc1/N=C(\NCC(F)(F)F)C1CCC1 (stereo not drawn) [Ib-142]  90%
6. CN/C(=N\c1cc([S+]([O-])CC(F)(F)F)c(Cl)cc1Cl)c1ccc(C(F)(F)F)nc1 (stereo not drawn) [Ib-144]  90%
7. CN/C(=N/c1cc([S+]([O-])CC(F)(F)F)c(C)cc1F)c1ccc(C(F)(F)F)cc1 (stereo not drawn) [Ib-145]  90%
8. O=C1CS/C(=N\c2ccc(Cl)c([S+]([O-])CC(F)(F)F)c2)N1CC(F)(F)F (stereo not drawn) [Ib-146]  90%
9. Cc1cc(C)c([S+]([O-])CC(F)(F)F)cc1/N=C(/c1ccccc1Cl)N(C)C (stereo not drawn) [Ib-147]  90%
10. CN/C(=N\c1cc([S+]([O-])CC(F)(F)F)c(Cl)cc1Cl)c1ccc(Cl)cc1 (stereo not drawn) [Ib-149]  90%
11. CCN/C(=N\c1cc([S+]([O-])CC(F)(F)F)c(Cl)cc1Cl)c1cccnc1 (stereo not drawn) [Ib-150]  90%
12. CN/C(=N\c1cc([S+]([O-])CC(F)(F)F)c(Cl)cc1Cl)c1ccncc1 (stereo not drawn) [Ib-152]  90%
13. Cc1cc(Cl)c([S+]([O-])CC(F)(F)F)cc1/N=C(\N)c1cnccn1 (stereo not drawn) [Ib-153]  90%
14. Cc1cc(C)c([S+]([O-])CC(F)(F)F)cc1/N=C(/c1ccc(Cl)cc1)N(C)C (stereo not drawn) [Ib-154]  90%
15. Cc1cc(C)c([S+]([O-])CC(F)(F)F)cc1/N=C(\NCC(F)(F)F)C1CCCC1 (stereo not drawn) [Ib-155]  90%
16. Cc1cc(C)c([S+]([O-])CC(F)(F)F)cc1/N=C1\SCC(=O)N1C1CC1 (stereo not drawn) [Ib-156]  90%
17. Cc1cc(C)c([S+]([O-])CC(F)(F)F)cc1/N=C(/c1ccccc1Cl)N1CCOCC1 (stereo not drawn) [Ib-157]  90%
18. Cc1cc(F)c(/N=c2\sc(C)c(C)n2CC(F)(F)F)cc1[S+]([O-])CC(F)(F)F (stereo not drawn) [Ib-158]  90%
19. Cc1cc(F)c(/N=C(\NCC(F)(F)F)C2CCC2)cc1[S+]([O-])CC(F)(F)F (stereo not drawn) [Ib-166]  90%
20. [O-][S+](CC(F)(F)F)c1cc(/N=C(\NCC(F)(F)F)C2CCC2)c(Cl)cc1Cl (stereo not drawn) [Ib-167]  90%
21. Cc1cc(F)c(/N=c2\scc(C3(Cl)CC3)n2CC(F)(F)F)cc1[S+]([O-])CC(F)(F)F (stereo not drawn) [Ib-172]  90%
22. Cc1cc(C)c([S+]([O-])CC(F)(F)F)cc1/N=C(/c1ccccc1)N(C)C (stereo not drawn) [Ib-126]  100%
23. CN(C)/C(=N\c1cc([S+]([O-])CC(F)(F)F)c(Cl)cc1Cl)c1ccccc1 (stereo not drawn) [Ib-127]  100%
24. [O-][S+](CC(F)(F)F)c1cc(/N=C(\NCC(F)F)C2CC2)c(Cl)cc1Cl (stereo not drawn) [Ib-129]  100%
25. [O-][S+](CC(F)(F)F)c1cc(/N=C(\NCCc2ncc(C(F)(F)F)cc2Cl)C2CC2)c(Cl)cc1Cl (stereo not drawn) [Ib-130]  100%
26. Cc1cc(F)c(/N=C(\N)C2CCCCC2)cc1[S+]([O-])CC(F)(F)F (stereo not drawn) [Ib-131]  100%
27. Cc1cc(F)c(/N=C(\NCC(F)F)C2CC2)cc1[S+]([O-])CC(F)(F)F (stereo not drawn) [Ib-132]  100%
28. Cc1cc(F)c(/N=C2\SCC(=O)N2C2CC2)cc1[S+]([O-])CC(F)(F)F (stereo not drawn) [Ib-135]  100%
29. Cc1cc(Cl)c([S+]([O-])CC(F)(F)F)cc1/N=C(\N)C1(Cl)CC1 (stereo not drawn) [Ib-138]  100%
30. Cc1ccc(/N=C2\SCC(=O)N2CC(F)(F)F)cc1[S+]([O-])CC(F)(F)F (stereo not drawn) [Ib-139]  100%
31. CN/C(=N\c1cc([S+]([O-])CC(F)(F)F)c(Cl)cc1Cl)c1cccc(Cl)c1 (stereo not drawn) [Ib-140]  100%
32. Cc1cc(C)c([S+]([O-])CC(F)(F)F)cc1/N=C1\SCC(=O)N1CC(F)(F)F (stereo not drawn) [Ib-141]  100%
33. CN/C(=N/c1cc([S+]([O-])CC(F)(F)F)c(C)cc1F)c1ccccc1C(F)(F)F (stereo not drawn) [Ib-148]  100%
34. [O-][S+](CC(F)(F)F)c1cc(/N=C(\NC2CC2)c2ccc(Cl)nc2)c(Cl)cc1Cl (stereo not drawn) [Ib-151]  100%
35. Cc1cc(C)c([S+]([O-])CC(F)(F)F)cc1/N=C(\NC(C)C(F)(F)F)C1CC1 (stereo not drawn) [Ib-160]  100%
36. Cc1cc(F)c(/N=C2\CCCN2C(C)C(F)(F)F)cc1[S+]([O-])CC(F)(F)F (stereo not drawn) [Ib-169]  100%
37. Cc1cc(F)c(/N=c2\snc(C)n2C)cc1[S+]([O-])CC(F)(F)F (stereo not drawn) [Ib-174]  100%

Same assay, conditions: application rate 500 g/ha, after 6 days

In order of rising “efficacy (spider mites killed)” value:
1. Cc1cc(F)c(/N=C(\c2ccc(C#N)cc2)N(C)C)cc1[S+]([O-])CC(F)(F)F (stereo not drawn) [Ib-77]  90%
2. CN/C(=N\c1cc([S+]([O-])CC(F)(F)F)c(C)cc1F)c1cccnc1 (stereo not drawn) [Ib-93]  100%
